Columns and labels:
Lu-99 cell line [1] = assay: Antitumor activity against human LU99 cells xenografted in BALB/cSLC-nu/nu mouse assessed as tumor growth inhibition at 40 mg/kg, iv administered in liposomal formulation on day 1, 4, 8, 11, 15, 18 measured on day 22 relative to control; assay type: functional; details: Lu-99, iv, read-out: TGI
HCT-116 = assay: Cytotoxicity against human HCT116 cells assessed as decrease in cell viability after 72 hrs by CCK8 assay; assay type: functional, cell-based; details: HCT-116, 72 h
MKN-1 = assay: Cytotoxicity against human MKN1 cells assessed as decrease in cell viability after 72 hrs by CCK8 assay; assay type: functional, cell-based; details: MKN-1, 72 h
MIA PaCa-2 = assay: Cytotoxicity against human MIAPaCa2 cells assessed as decrease in cell viability after 72 hrs by CCK8 assay; assay type: functional, cell-based; details: MIA PaCa-2, 72 h
CWR22R = assay: Cytotoxicity against human 22Rv1 cells assessed as decrease in cell viability after 72 hrs by CCK8 assay; assay type: functional, cell-based; details: 22Rv1, 72 h
MKN-45 = assay: Cytotoxicity against human MKN45 cells assessed as decrease in cell viability after 72 hrs by CCK8 assay; assay type: functional, cell-based; details: MKN-45, 72 h
Daudi = assay: Cytotoxicity against human Daudi cells assessed as decrease in cell viability after 72 hrs by CCK8 assay; assay type: functional, cell-based
MDA-MB-231 = assay: Cytotoxicity against human MDA-MB-231 cells assessed as decrease in cell viability after 72 hrs by CCK8 assay; assay type: functional, cell-based; details: MDA-MB-231, 72 h
HepG2 = assay: Cytotoxicity against human HepG2 cells assessed as decrease in cell viability after 72 hrs by CCK8 assay; assay type: functional, cell-based; details: HepG2, 72 h
A549 = assay: Cytotoxicity against human A549 cells assessed as decrease in cell viability after 72 hrs by CCK8 assay; assay type: functional, cell-based; details: A549, 72 h
DU-4475 = assay: Cytotoxicity against human DU4475 cells assessed as decrease in cell viability after 72 hrs by CCK8 assay; assay type: functional, cell-based; details: DU-4475, 72 h
Lu-99 cell line [2] = assay: Cytotoxicity against human LU99 cells assessed as decrease in cell viability after 72 hrs by CCK8 assay; assay type: functional, cell-based; details: Lu-99, 72 h
Lu-99 cell line [3] = assay: Antitumor activity against human LU99 cells xenografted in BALB/cSLC-nu/nu mouse assessed as tumor growth inhibition at 100 mg/kg, po qd administered for 14 days measured on day 15 relative to control; assay type: functional; details: Lu-99, po, read-out: TGI
T47D = assay: Cytotoxicity against human T47D cells assessed as decrease in cell viability after 72 hrs by CCK8 assay; assay type: functional, cell-based
UMUC3 = assay: Cytotoxicity against human UM-UC-3 cells assessed as decrease in cell viability after 72 hrs by CCK8 assay; assay type: functional, cell-based; details: UMUC3, 72 h

With Cc1cc(O)c(-c2ccc([C@@H](C)CN(C)C)cc2)c2c1[nH]c(=O)c1sccc12 as the molecule, how does the inhibition in vivo at 40 mg/kg (Lu-99 cell line [1]) read?
Its inhibition in vivo at 40 mg/kg is 110%.

What about the IC50 (HCT-116) of the same molecule?
Its IC50 is 0.033 µM.

And the IC50 (MKN-1)?
The IC50 was 0.038 µM.

And the IC50 (MIA PaCa-2)?
Its IC50 is 0.03 µM.

And the IC50 (CWR22R)?
Its IC50 is 0.05 µM.

What about the IC50 (MKN-45) of the same molecule?
The IC50 was 0.039 µM.

What about the IC50 (Daudi) of the same molecule?
Its IC50 is 0.025 µM.

And the IC50 (MDA-MB-231)?
The IC50 was 0.073 µM.

And the IC50 (HepG2)?
The IC50 was 0.019 µM.

And the IC50 (A549)?
The IC50 was 0.031 µM.

What about the IC50 (DU-4475) of the same molecule?
Its IC50 is 0.053 µM.

What about the IC50 (Lu-99 cell line [2]) of the same molecule?
The IC50 was 0.0076 µM.

And the inhibition in vivo at 100 mg/kg (Lu-99 cell line [3])?
The inhibition in vivo at 100 mg/kg was 113%.

And the IC50 (T47D)?
Its IC50 is 0.072 µM.

What about the IC50 (UMUC3) of the same molecule?
The IC50 was 0.032 µM.

Source: ChEMBL document CHEMBL4261482, “Development of small molecular compounds targeting cancer stem cells” (Medchemcomm, 2017)
